Patent publication US5866537A, “Pharmaceutical and/or dietetic compositions with antioxidant activity containing carnosine or derivatives and branched amino acids” (Farmila-Farmaceutici Milano S.R.L., priority 1995, dated 1999)
Counter-ions that a name gives are not always drawn.

Experiments:
Format in all cases: in vivo
[1] = system: lipoperoxides content in brain; test: lipoperoxides content in brain (malonyldialdehyde, Yagi procedure) of rats on hyperlipidemizing and hypercholesterolemizing diet; details: male rats, solution as ad libitum drink; for percent variation compared with the control: brain lipoperoxides, 20 days diet; for malonyldialdehyde nmoles/g. of fresh tissue: brain, 20 days hyperlipidemizing and hypercholesterolemizing diet
Method: 3°) effect of the compositions on the lipoperoxides cerebral content (measured as malonyldialdehyde nmoles/g)
(§1) 36 Male rats weighing 180-200 g were used.
(§2) The animals were subjected for 20 days to a standard hyperlipidemizing and hypercolesterolemizing diet consisting of: 20% caseine, a 3.5% mixture of oligoelements and mineral salts, a 0.1% mixture of vitamins, 0.2% choline bitartrate, 2% cellulose powder, 0.5% chloesterol, 0.25. sodium cholate, 62.44% saccharose and 10.9% lard. During that time, the animals were divided into in 6 groups which received as an "ad libitum" available drink:
(§3) 1° group: control (only water)
(§4) 2° group: Test A (a 0.75% CARNOSINE aqueous solution)
(§5) 3° group: Test B (a 0.25% CARNITINE aqueous solution)
(§6) At end of the test the animals were killed to take both blood samples and the various organs (liver, brain, and heart) on which the lipoperoxides content was evaluated dosing malonyldialdehyde, according to the procedure by Yagi (YAGI K, (1982), in "Lipid peroxides in biology and medicine", Academic Press, New York, pp. 324-40).

[2] = system: lipoperoxides content in the heart; test: lipoperoxides content in heart (malonyldialdehyde, Yagi procedure) of rats on hyperlipidemizing and hypercholesterolemizing diet; details: male rats, solution as ad libitum drink; for percent variation compared with the control: heart lipoperoxides, 20 days diet; for malonyldialdehyde nmoles/g. of fresh tissue: heart, 20 days hyperlipidemizing and hypercholesterolemizing diet
Method: (§7) In order to study the pharmacological and/or dietetic characteristics of the compositions according to the present invention, tests were carried out to evaluate the following effects in rats subjected to an ipovitaminic, hyperlipidemizing and hypercholesterolemizing diet (which is known to be capable of promoting the tissue and plasma peroxidation processes):
4°) effect of the compositions on the lipoperoxides content in the heart (measured as malonyldialdehyde nmoles/g).
as §1, §2, §3, §4, §5, §6

[3] = system: lipoperoxides content in the liver; test: lipoperoxides content in liver (malonyldialdehyde, Yagi procedure) of rats on hyperlipidemizing and hypercholesterolemizing diet; details: male rats, solution as ad libitum drink; for percent variation compared with the control: liver lipoperoxides, 20 days diet; for malonyldialdehyde nmoles/g. of fresh tissue: liver, 20 days hyperlipidemizing and hypercholesterolemizing diet
Method: as §7
2°) effect of the compositions on the lipoperoxides hepatic content (measured as malonyldialdehyde nmoles/g)
as §1, §2, §3, §4, §5, §6

[4] = system: lipoperoxides content in the plasma; test: lipoperoxides content in plasma (malonyldialdehyde, Yagi procedure) of rats on hyperlipidemizing and hypercholesterolemizing diet; details: male rats, solution as ad libitum drink; for percent variation compared with the control: plasma lipoperoxides, 20 days diet; for malonyldialdehyde: plasma, 20 days hyperlipidemizing and hypercholesterolemizing diet
Method: as §7
1°) effect of the compositions on the lipoperoxides […] content (measured as malonildialdehye nmoles/ml)
as §1, §2, §3, §4, §5, §6

Row | Structure (SMILES) | percent variation compared with the control [1] | malonyldialdehyde nmoles/g. of fresh tissue [1] | percent variation compared with the control [2] | malonyldialdehyde nmoles/g. of fresh tissue [2] | percent variation compared with the control [3] | malonyldialdehyde nmoles/g. of fresh tissue [3] | percent variation compared with the control [4] | malonyldialdehyde [4] | percent variation compared with the control ([2]; listed as carnosine)
1 | C[N+](C)(C)CC(O)CC(=O)[O-] (centres unmarked) [Test B, 3-carboxy-2-hydroxy-N,N,N-trimethyl-1-propanamine inner salt] | +3.9% | 106 ± 5 nmoles/g. of fresh tissue | no changes compared with the controls | 45 ± 4 nmoles/g. of fresh tissue | +2.3% | 43 ± 6 nmoles/g. of fresh tissue | no effects | 4.2 ± 0.8 nmol/mL | –
2 | NCCC(=O)N[C@@H](Cc1c[nH]cn1)C(=O)O [Test A, β-alanyl-L-histidine] | -12.7% | 89 ± 7 nmoles/g. of fresh tissue | -20.0% | 36 ± 7 nmoles/g. of fresh tissue | -9.5% | 39 ± 8 nmoles/g. of fresh tissue | -14.2% | 3.6 ± 0.6 nmol/mL | -20%
